In paper PMC5833296 (Journal of medicinal chemistry, 2018):
Where two headings read alike, the source gives them in different places. Marks after values point to notes of the source that are not given here.

Columns and labels:
BoNT/A = conditions: mouse, in vivo; cited from earlier work
BoNT/A holotoxin [1] = target: BoNT/A holotoxin (Clostridium botulinum, UniProt P0DPI1); assay: cell-based
BoNT/A holotoxin [2] = target: BoNT/A holotoxin (Clostridium botulinum, UniProt P0DPI0)
healthy mice = conditions: mouse, in vivo; for Mice alive/Total mice: po, 160 mg/kg
HSA = HSA (Homo sapiens, UniProt P02768); conditions: pH 7.34
[3] = in vivo
[4] = test system: CYP450 enzymes (CYP3A4, CYP2C19, CYP2D6); assay: in vitro; conditions: human
BoNT/A holotoxin [5] = test system: BoNT/A holotoxin
AGP = conditions: pH 7.34

BoNT/A holotoxin (Clostridium botulinum, UniProt P0DPI1), sequence (P0DPI1 2-448 limits assumed): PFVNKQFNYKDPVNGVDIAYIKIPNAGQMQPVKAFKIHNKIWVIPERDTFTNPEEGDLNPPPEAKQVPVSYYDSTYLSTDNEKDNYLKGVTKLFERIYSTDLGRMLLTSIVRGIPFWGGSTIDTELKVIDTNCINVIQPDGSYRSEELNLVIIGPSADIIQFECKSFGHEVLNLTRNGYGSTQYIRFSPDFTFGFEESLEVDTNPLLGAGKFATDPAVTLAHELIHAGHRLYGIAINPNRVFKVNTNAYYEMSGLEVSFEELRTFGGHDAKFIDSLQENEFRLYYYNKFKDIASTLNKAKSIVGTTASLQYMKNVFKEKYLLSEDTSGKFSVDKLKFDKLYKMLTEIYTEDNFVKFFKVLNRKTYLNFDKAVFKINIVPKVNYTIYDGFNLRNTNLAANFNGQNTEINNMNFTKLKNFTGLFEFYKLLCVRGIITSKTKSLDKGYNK
BoNT/A holotoxin (Clostridium botulinum, UniProt P0DPI0), sequence (P0DPI0 2-1296 limits assumed): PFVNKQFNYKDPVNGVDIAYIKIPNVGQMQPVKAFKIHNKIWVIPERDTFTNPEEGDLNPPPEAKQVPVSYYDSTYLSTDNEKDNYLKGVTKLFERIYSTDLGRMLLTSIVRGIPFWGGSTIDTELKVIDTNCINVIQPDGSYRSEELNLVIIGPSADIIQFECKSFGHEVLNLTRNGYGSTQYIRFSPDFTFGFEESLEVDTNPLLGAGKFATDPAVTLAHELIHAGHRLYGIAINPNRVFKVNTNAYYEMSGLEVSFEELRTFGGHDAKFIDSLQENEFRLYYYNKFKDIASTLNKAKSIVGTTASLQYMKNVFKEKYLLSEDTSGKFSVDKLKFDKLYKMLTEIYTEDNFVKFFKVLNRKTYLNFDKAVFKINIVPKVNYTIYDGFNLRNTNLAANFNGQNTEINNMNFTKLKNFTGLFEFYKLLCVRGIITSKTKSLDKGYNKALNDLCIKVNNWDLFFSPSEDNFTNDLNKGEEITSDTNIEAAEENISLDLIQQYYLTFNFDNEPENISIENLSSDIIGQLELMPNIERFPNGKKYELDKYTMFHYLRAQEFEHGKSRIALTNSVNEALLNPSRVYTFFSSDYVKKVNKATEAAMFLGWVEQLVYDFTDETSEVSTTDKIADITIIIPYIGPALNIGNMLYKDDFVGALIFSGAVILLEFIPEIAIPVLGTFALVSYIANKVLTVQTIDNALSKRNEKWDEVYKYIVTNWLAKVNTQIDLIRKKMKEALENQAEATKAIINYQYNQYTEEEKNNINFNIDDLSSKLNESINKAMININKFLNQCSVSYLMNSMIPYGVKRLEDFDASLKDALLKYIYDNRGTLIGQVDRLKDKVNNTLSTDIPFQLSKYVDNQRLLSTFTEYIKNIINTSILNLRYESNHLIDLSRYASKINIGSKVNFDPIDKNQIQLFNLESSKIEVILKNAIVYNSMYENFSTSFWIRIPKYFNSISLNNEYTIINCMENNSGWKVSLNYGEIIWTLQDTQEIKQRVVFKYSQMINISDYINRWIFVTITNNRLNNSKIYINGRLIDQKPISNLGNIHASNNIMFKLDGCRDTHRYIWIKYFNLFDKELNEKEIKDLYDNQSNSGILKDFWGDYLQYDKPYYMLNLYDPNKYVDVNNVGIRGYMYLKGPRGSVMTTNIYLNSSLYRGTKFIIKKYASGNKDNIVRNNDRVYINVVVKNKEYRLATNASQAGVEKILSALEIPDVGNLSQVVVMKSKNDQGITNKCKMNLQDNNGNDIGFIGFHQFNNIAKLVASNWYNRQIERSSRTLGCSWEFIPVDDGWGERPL
HSA, sequence (P02768 25-609): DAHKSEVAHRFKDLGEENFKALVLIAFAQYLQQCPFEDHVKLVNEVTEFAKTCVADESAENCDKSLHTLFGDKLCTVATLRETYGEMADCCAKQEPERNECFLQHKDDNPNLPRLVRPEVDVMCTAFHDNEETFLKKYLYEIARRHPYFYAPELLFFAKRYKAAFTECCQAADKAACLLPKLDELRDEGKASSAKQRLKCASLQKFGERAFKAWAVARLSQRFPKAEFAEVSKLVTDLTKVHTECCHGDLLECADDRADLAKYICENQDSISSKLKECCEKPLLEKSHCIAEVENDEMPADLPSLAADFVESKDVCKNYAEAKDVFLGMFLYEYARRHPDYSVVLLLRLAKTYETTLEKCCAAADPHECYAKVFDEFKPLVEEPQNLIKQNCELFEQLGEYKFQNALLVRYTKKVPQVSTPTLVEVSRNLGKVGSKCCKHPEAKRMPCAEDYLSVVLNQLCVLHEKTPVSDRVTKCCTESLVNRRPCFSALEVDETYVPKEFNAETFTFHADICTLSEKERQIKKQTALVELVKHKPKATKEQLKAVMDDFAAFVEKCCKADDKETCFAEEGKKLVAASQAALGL

| SMILES | % of full length SNAP-25, mES-MNs pre intoxication (BoNT/A holotoxin [1]; 10 μM) | % of full length SNAP-25, mES-MNs pre intoxication (BoNT/A holotoxin [1]; 20 μM) | exp LogD (pH 1) | exp LogD (pH 10) | also measured |
| --- | --- | --- | --- | --- | --- |
| O=C(CS)Nc1cc(-c2ccc(F)cc2)n[nH]1 [ABS 252, N-(3-(4-fluorophenyl)-1H pyrazol-5 yl)-2-mercaptoacetamide] |  |  |  |  | survival of BoNT intoxicated mice (BoNT/A): effective in extending survival |
| CC(=O)O[C@H]1C[C@H]2[C@@H]([C@H](OC(C)=O)C[C@@H]3C[C@H](NCCCCCCNc4ccnc5cc(Cl)ccc45)CC[C@@]32C)[C@@H]2CC[C@H]([C@H](C)CCCNCCCCCCNc3ccnc4cc(Cl)ccc34)[C@@]12C [Compound 1, reference compound] | 70; 84% | 70; 84% |  |  | IC50 (BoNT/A holotoxin [1]): < 10 µM; % of full length SNAP-25, mES-MNs post intoxication (BoNT/A holotoxin [2]): 36; 20% |
| CC(=O)O[C@H]1C[C@H]2[C@@H]([C@H](OC(C)=O)C[C@@H]3C[C@H](N)CC[C@@]32C)[C@@H]2CC[C@H]([C@H](C)CCCNCCCCNc3ccnc4ccccc34)[C@@]12C [Compound 14] | 28; 67% | 28; 67% | 2.14 (pH=1) |  | IC50 (BoNT/A holotoxin [1]): 10 to 20 µM |
| CC(=O)O[C@H]1C[C@H]2[C@@H]([C@H](OC(C)=O)C[C@@H]3C[C@H](N)CC[C@@]32C)[C@@H]2CC[C@H]([C@H](C)CCCN(C)CCCCNc3ccnc4ccccc34)[C@@]12C [Compound 15] | 70; 69% | 70; 69% | 2.11 (pH=1) |  |  |
| CC(=O)O[C@H]1C[C@H]2[C@@H]([C@H](OC(C)=O)C[C@@H]3C[C@H](N)CC[C@@]32C)[C@@H]2CC[C@H]([C@H](C)CCCNCCCCNc3ccnc4cc(Cl)ccc34)[C@@]12C [Compound 16] |  |  | 2.55 (pH=1); 2.07 (pH=7.3) ^d |  | host toxicity, single oral dose (healthy mice): non-toxic; Mice alive/Total mice (healthy mice): 5/5; Ksv for HSA (HSA): (4.56±0.27)×10^4; time Tc > 3μM ([3]; mouse): >45 min; IC50 [4]: 1 to 10 µM; % of full length SNAP-25, mES-MNs pre intoxication (BoNT/A holotoxin [1]): 72; 88%; toxicity in mES-MNs (GAPDH loading control levels lower) (BoNT/A holotoxin [5]): potential toxicity; Ksv for AGP (AGP): (6.99±0.25)×10^5 |
| CC(=O)O[C@H]1C[C@H]2[C@@H]([C@H](OC(C)=O)C[C@@H]3C[C@H](N)CC[C@@]32C)[C@@H]2CC[C@H]([C@H](C)CCCNCCCC(C)Nc3ccnc4ccccc34)[C@@]12C (stereo partly drawn) [Compound 17] | 67; 69% | 67; 69% | 2.28 (pH=1) |  |  |
| CC(=O)O[C@H]1C[C@H]2[C@@H]([C@H](OC(C)=O)C[C@@H]3C[C@H](N)CC[C@@]32C)[C@@H]2CC[C@H]([C@H](C)CCCN(C)CCCC(C)Nc3ccnc4ccccc34)[C@@]12C (stereo partly drawn) [Compound 18] |  |  | 2.38 (pH=1) |  | % of full length SNAP-25, mES-MNs pre intoxication (BoNT/A holotoxin [1]): 20; 41% |
| CC(=O)O[C@H]1C[C@H]2[C@@H]([C@H](OC(C)=O)C[C@@H]3C[C@H](N)CC[C@@]32C)[C@@H]2CC[C@H]([C@H](C)CCCNC(C)CCCNc3ccnc4ccccc34)[C@@]12C (stereo partly drawn) [Compound 19] | 86; 87% | 86; 87% | 2.21 (pH=1) |  | Mice alive/Total mice (healthy mice): 3/5 |
| C[C@H](CCCNCCCCNc1ccnc2cc(Cl)ccc12)[C@H]1CC[C@H]2[C@@H]3[C@H](O)C[C@@H]4C[C@H](N)CC[C@]4(C)[C@H]3C[C@H](O)[C@]12C [Compound 24] |  |  | 2.97 (pH=1) |  | detection as metabolite in mouse samples after oral 16 [3]: None of these metabolites were detected; IC50 (BoNT/A holotoxin [1]): 8 to 16 µM; % of full length SNAP-25, mES-MNs pre intoxication (BoNT/A holotoxin [1]; 8 μM): 46; 58 ^e %; % of full length SNAP-25, mES-MNs pre intoxication (BoNT/A holotoxin [1]; 16 μM): 46; 58 ^e % |
| CC(CCCNc1ccnc2ccccc12)NCc1ccc(-c2csc3ccc(F)cc23)cc1 (stereo not drawn) [Compound 34] |  |  |  | 3.85 (pH=10) | Mice alive/Total mice (healthy mice): 5/5; % of full length SNAP-25, mES-MNs pre intoxication (BoNT/A holotoxin [1]): 58; 68%; IC50 (BoNT/A holotoxin [1]): 10 to 20 µM |
| CC(CCCNCc1ccc(-c2csc3ccc(C#N)cc23)cc1)Nc1ccnc2ccccc12 (stereo not drawn) [Compound 36] | 34; 53% | 34; 53% |  | 3.67 (pH=10) |  |
| CN(CCCCNc1ccnc2ccccc12)Cc1ccc(-c2csc3ccc(F)cc23)cc1 [Compound 37] | 44; 55% | 44; 55% |  | 3.98 (pH=10) |  |
| CC(CCCN(C)Cc1ccc(-c2csc3ccc(C#N)cc23)cc1)Nc1ccnc2ccccc12 (stereo not drawn) [Compound 38] |  |  |  | 3.42 (pH=10) | % of full length SNAP-25, mES-MNs pre intoxication (BoNT/A holotoxin [1]): 59; 64%; IC50 (BoNT/A holotoxin [1]): 10 to 20 µM |
| N#Cc1ccc(-c2ccc(-c3ccc(CNCCCCCCNc4ccnc5ccccc45)cc3)s2)cc1 [Compound 46] | 22; 48% | 22; 48% | 3.08 (pH=1) |  |  |
| N#Cc1ccc(-c2ccc(-c3cccc(CNCCCCCCNc4ccnc5ccccc45)c3)s2)cc1 [Compound 50] | 46; 71% | 46; 71% | 3.08 (pH=1) |  |  |
| CN(CCCNc1ccnc2cc(Cl)ccc12)CC12CC3CC(CC(C3)C1)C2 [Compound 57] | 51; 56% | 51; 56% |  | 3.24 (pH=10) | Mice alive/Total mice (healthy mice): 4/5 |

| SMILES | % of full length SNAP-25, mES-MNs pre intoxication (BoNT/A holotoxin [1]; 10 μM) | % of full length SNAP-25, mES-MNs pre intoxication (BoNT/A holotoxin [1]; 20 μM) | exp LogD (pH 1) | exp LogD (pH 10) | also measured |
| --- | --- | --- | --- | --- | --- |
| CC(CCN(C)CC12CC3CC(CC(C3)C1)C2)Nc1ccnc2cc(Cl)ccc12 (stereo not drawn) [Compound 60] | 63; 72% | 63; 72% |  | 3.47 (pH=10) | Mice alive/Total mice (healthy mice): 3/5; IC50 (BoNT/A holotoxin [1]): < 10 µM; protection of SNAP-25, pre-exposure dose-response experiment (BoNT/A holotoxin [1]): 90% |
| CN(CCCNc1ccnc2ccccc12)CC12CC3CC(CC(C3)C1)C2 [Compound 68] | 30; 31% | 30; 31% |  |  |  |
| CC(CCNc1ccnc2ccccc12)NCCC12CC3CC(CC(C3)C1)C2 (stereo not drawn) [Compound 81] | 23; 24% | 23; 24% |  |  |  |
| CC(CCN(C)CC12CC3CC(CC(C3)C1)C2)Nc1ccnc2ccccc12 (stereo not drawn) [Compound 85] |  |  |  |  | % of full length SNAP-25, mES-MNs pre intoxication (BoNT/A holotoxin [1]): 47; 46% |
| N#Cc1ccc2scc(-c3ccc(CNCCCCNc4ccnc5ccccc45)cc3)c2c1 [Compound 86] | 21; 26% | 21; 26% |  | 3.67 (pH=10) |  |
| N#Cc1ccc2scc(-c3ccc(CNCCCCCCNc4ccnc5ccccc45)cc3)c2c1 [Compound 87] | 36; 43% | 36; 43% |  | 3.85 (pH=10) |  |
| CC(CCCNCc1ccc(-c2csc3ccc(F)cc23)cc1)Nc1ccnc2ccccc12 (stereo not drawn) [Compound 91] |  |  |  | 3.98 (pH=10) | % of full length SNAP-25, mES-MNs pre intoxication (BoNT/A holotoxin [1]): 62; 62% |
| N#Cc1ccc(-c2ccc(-c3ccc(CNCCCCCCCCNc4ccnc5ccccc45)cc3)s2)cc1 [Compound 93] |  |  | 3.42 (pH=1) |  | Mice alive/Total mice (healthy mice): 5/5; % of full length SNAP-25, mES-MNs pre intoxication (BoNT/A holotoxin [1]): 31; 70% |
| CN(CCCCCCCCNc1ccnc2ccccc12)Cc1ccc(-c2ccc(-c3ccc(C#N)cc3)s2)cc1 [Compound 96] |  |  | 3.33 (pH=1) |  | Mice alive/Total mice (healthy mice): 5/5; % of full length SNAP-25, mES-MNs pre intoxication (BoNT/A holotoxin [1]): 54; 60%; IC50 (BoNT/A holotoxin [1]): 5 to 10 µM |
| N#Cc1ccc(-c2ccc(-c3ccc(CNCCCCNc4ccnc5ccccc45)cc3)s2)cc1 [Compound 101] | 18; 39% | 18; 39% | 2.93 (pH=1) |  |  |
| CC(CCNc1ccnc2cc(Cl)ccc12)NCC12CC3CC(CC(C3)C1)C2 (stereo not drawn) [Compound 102] | 29; 30% | 29; 30% |  | 3.40 (pH=10) |  |
| CC(CCNCCC12CC3CC(CC(C3)C1)C2)Nc1c(F)cnc2cc(Cl)ccc12 (stereo not drawn) [Compound 103] | 30; 29% | 30; 29% |  | 4.33 (pH=10) |  |
| CC(CCNCC12CC3CC(CC(C3)C1)C2)Nc1c(F)cnc2cc(Cl)ccc12 (stereo not drawn) [Compound 104] | 31; 35% | 31; 35% |  | 3.24 (pH=10) |  |
| CC(CCNCC12CC3CC(CC(C3)C1)C2)Nc1c(F)cnc2ccccc12 (stereo not drawn) [Compound 105] | 24; 23% | 24; 23% |  | 3.09 (pH=10) |  |
| CC(CCNCCC12CC3CC(CC(C3)C1)C2)Nc1c(F)cnc2ccccc12 (stereo not drawn) [Compound 106] | 30; 32% | 30; 32% |  | 4.13 (pH=10) |  |
